From US20230346827A1 (priority 2020, published 2023)

How the values were obtained:
[1] = system: Human umbilical vein endothelial cells (HUVECs); experiment: Gene expression array and pathway analysis, HUVECs, LMW-DS 0.01 mg/ml 48 h; type: cell-based; settings: for number of genes: abolished nutrient effect / number of genes: total / number of genes: enhanced response to nutrients / number of genes: not different from control / Activation z-score / Predicted activation state relative D2 control: HUVECs; for Activation z-score / Predicted activation state relative D2 control: D2 LMW-DS treatment
Procedure: For each cell line, n=8 × 25 cm^2 culture flasks were set up. Two flasks were harvested for each cell type on the day of treatment (24 hours after seeding). This represents the Day0 time point. From the remaining flasks, three flasks were treated with Control Medium and three were treated with Culture Medium (CM) containing LMW-DS to give a final concentration of 0.01 mg/ml. Cells from the treated flasks were collected after 48 hours. Therefore the collected data represent (a) untreated cells (Day0 Controls and Day2 Controls) and (b) cells treated with LMW-DS (ILB®, Tikomed AB, Viken, Sweden, WO 2016/076780) for 48 hours (Day2 LMW-DS treated).
Medium 200 + Large Vessel Endothelial Supplement (M200+LVES) additive (1:50) was prepared and pre-warmed to 37° C. Cells were thawed in a 37° C. water bath for no longer than 2 min and gently transferred into a 50 ml tube containing 20 ml Dulbecco’s Modified Eagle Medium, Nutrient Mixture F-12 (DMEM-F12). The cell suspension was mixed by inverting the tube carefully twice. Cells were spun at 400 × g for 10 minutes. Supernatant removed and cells were re-suspended in 10 ml of culture media (M200+LVES additive).
Cells were counted with the Cellometer. 1,000,000 cells/flask were seeded in 25 cm^2 flasks (n=8) and medium was topped up to a total of 5 ml per flask. Cells were incubated at 37° C. with 5% CO2. Cells were allowed to settle for 24 hours before LMW-DS treatment.
LMW-DS was provided at a stock concentration of 20 mg/ml and was kept in a temperature monitored refrigerator at 4° C. A fresh 100x LMW-DS stock (1.0 mg/ml) was prepared in sterile DMEM-F12. The concentrated drug stock was sterile filtered and added to the respective culture media (19.6 ml CM and 0.4 ml LMW-DS stock solution). The Control was made using 19.6 ml CM and 0.4 ml of DMEM-F12. LMW-DS and CM were added to the respective flasks (5 ml each) to reach the 0.01 mg/ml concentration of LMW-DS in each dish with a total of 10 ml CM each.
CM was aspirated into a clean and labelled 15 ml Falcon tube. The flasks (without culture medium) were placed into the -80° C. freezer for 30 minutes. The CM in the Falcon tubes was spun at 3000 x g for 5 minutes. Supernatant was removed and the small pellet was re-suspended in 2.5 ml Trizol:Water (4:1) solution at room temperature (RT, ~22° C.).
Two aliquots of 1 ml lysate were removed from each sample and 200 µl of chloroform was added to each (0.2 ml of chloroform per 1 ml of TRIzol Reagent used during the cell lysis step) and the tube was shaken vigorously. Samples were stored at RT for 2-3 minutes and subsequently centrifuged at 12,000 x g for 15 minutes at 4° C.
The RNA was precipitated from the aqueous phase by adding an equal amount of 100% ethanol. The precipitated RNA was fixed onto a Spin Cartridge, washed twice and dried. The RNA was eluted in 50 µl warm RNase-Free Water. The amount and quality of the purified RNA was measured by Nanodrop. The RNA was stored at -80° C. before transfer to Source Bioscience for Array analysis.
The expression data were downloaded into separate files for each cell line. The ‘Background corrected’ expression is the data from the “gProcessedSignal” of the arrays that is the result of the background signal extracted from the actual signal of the relevant probe. This is the most often used variable in array analysis. The background corrected signal was log2 transformed for all samples for statistical analysis. To reduce the false discovery rate in the samples, the signals that were below ‘expression level’ were removed. The ‘below expression’ level was set at 5 for the log2 transformed expression values.
Based on the expression pattern of the Control probes on each array it was decided to carry out Median Centering for all arrays before analysis to reduce the variability of the results. […]

ALS patients = experiment: ALSAQ-40 sub-scores in ALS patients, dextran sulfate 2 mg/kg s.c. weekly for ten weeks (Example 14); type: in vivo, human; settings: after 10 weeks of treatment
Procedure: Dextran sulfate (ILB®, Tikomed AB, Viken, Sweden, WO 2016/076780) was administered at 2 mg/kg by […] subcutaneous injection once a week for ten weeks to 8 human patients suffering from ALS.
ALSAQ-40 was assessed pre-treatment and weekly thereafter for the 10 treatment weeks and for the visits at the follow-up period.

Substance: sodium salt of dextran sulfate [LMW-DS]
- genes regulating cell attachment (of 197) differentially regulated [1]: none
- number of differentially expressed genes ([1]; D0 control to D2 LMW-DS treated): 1779
- number of differentially expressed genes ([1]; D2 control to D2 LMW-DS treated): 76
- number of genes: abolished nutrient effect ([1]; no effect): 67
- number of genes: total ([1]; no effect): 67
- number of genes: abolished nutrient effect ([1]; significant downregulation): 4
- number of genes: enhanced response to nutrients ([1]; significant downregulation): 120
- number of genes: not different from control ([1]; significant downregulation): 167
- number of genes: total ([1]; significant downregulation): 291
- number of genes: abolished nutrient effect ([1]; significant upregulation): 11
- number of genes: enhanced response to nutrients ([1]; significant upregulation): 229
- number of genes: not different from control ([1]; significant upregulation): 1326
- number of genes: total ([1]; significant upregulation): 1566
- number of genes: abolished nutrient effect ([1]; total): 82
- number of genes: enhanced response to nutrients ([1]; total): 349
- number of genes: not different from control ([1]; total): 1493
- number of genes: total ([1]; total): 1924
- modulation of the effects of oxidative stress on mitochondria ([1]; pathway analysis of gene expression): no significant modulation
- genes altered in Control cultures with no changes in LMW-DS treated cultures ([1]; two days): 67
- genes downregulated by growth factors, downregulation stronger with LMW-DS ([1]; two days): 120
- genes downregulated in control cultures, upregulated in LMW-DS treated cultures ([1]; two days): 11
- genes increased in control cultures, downregulated in LMW-DS treated cultures ([1]; two days): 4
- genes upregulated in Control cultures, upregulation stronger with LMW-DS ([1]; two days): 229
- Activation z-score ([1]; upstream regulator HGF): 3.194
- Predicted activation state relative D2 control ([1]; upstream regulator HGF): Activated relative to control
- Activation z-score ([1]; upstream regulator TGFβ1): 1.429
- Predicted activation state relative D2 control ([1]; upstream regulator TGFβ1): Activated relative to control
- Activation z-score ([1]; upstream regulator VEGF): 3.432
- Predicted activation state relative D2 control ([1]; upstream regulator VEGF): Activated relative to control
- ALSAQ-40 ADL sub-score (ALS patients): 44.4 ± 24.7
- ALSAQ-40 PM sub-score (ALS patients): 22.7 ± 20.2
- decline of ALSAQ-40 ADL sub-score (ALS patients): 18.6%
- decline of ALSAQ-40 PM sub-score (ALS patients): 16%
